Measurements taken from US10131652B2, “Pyrimidinyloxy benzene derivatives as herbicides” (E. I. DU PONT DE NEMOURS AND COMPANY, priority 2014, dated 2018).

Key:
Assay in all cases: Test D pre-/postemergence plant response
Assay type in all cases: in vivo
[1] = test system: pigweed (Amaranthus retroflexus); settings: Postemergence
Procedure, shortened: (§1)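 Ratings were visual, 0 = no effect to 100 = complete control, taken against untreated controls after 13 to 15 days in a greenhouse. Chemicals, formulated in non-phytotoxic surfactant-containing solvent, went onto soil (loam/sand) at planting for preemergence, or onto 1- to 4-leaf plants (2–18 cm) for postemergence.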

[2] = test system: galium (catchweed bedstraw, Galium aparine); settings: Postemergence; for Galium plant response rating: 31 g ai/ha, scale 0 to 100 (0 no effect, 100 complete control); for Plant response rating, Galium: scale 0 to 100, 0 no effect, 100 complete control
Procedure, shortened: as §1

[3] = test system: morningglory (Ipomoea coccinea); settings: Postemergence
Procedure, shortened: as §1

corn (Zea mays) = settings: Postemergence; for Corn plant response rating: scale 0 to 100 (0 no effect, 100 complete control); for Plant response rating, Corn: scale 0 to 100, 0 no effect, 100 complete control
Procedure, shortened: as §1

[4] = test system: lambsquarters (Chenopodium album); settings: Postemergence
Procedure, shortened: as §1

[5] = test system: barnyardgrass (Echinochloa crus-galli); settings: Postemergence; for Barnyardgrass plant response rating: scale 0 to 100 (0 no effect, 100 complete control); for Plant response rating, Barnyardgrass: scale 0 to 100, 0 no effect, 100 complete control
Procedure, shortened: as §1

[6] = test system: yellow nutsedge (Cyperus esculentus); settings: Postemergence
Procedure, shortened: as §1

[7] = test system: blackgrass (Alopecurus myosuroides); settings: Postemergence; for Blackgrass plant response rating: scale 0 to 100 (0 no effect, 100 complete control); for Plant response rating, Blackgrass: scale 0 to 100, 0 no effect, 100 complete control
Procedure, shortened: as §1

[8] = test system: Italian ryegrass (Lolium multiflorum); settings: Postemergence
Procedure, shortened: as §1

[9] = test system: ragweed (common ragweed, Ambrosia elatior); settings: Postemergence
Procedure, shortened: as §1

[10] = test system: winter wheat (Triticum aestivum); settings: Postemergence
Procedure, shortened: as §1

[11] = test system: velvetleaf (Abutilon theophrasti); settings: Postemergence
Procedure, shortened: as §1

[12] = test system: large (Lg) crabgrass (Digitaria sanguinalis); settings: Postemergence; for Crabgrass, Large plant response rating: scale 0 to 100 (0 no effect, 100 complete control); for Plant response rating, Crabgrass, Large: scale 0 to 100, 0 no effect, 100 complete control
Procedure, shortened: as §1

[13] = test system: johnsongrass (Sorghum halepense); settings: Postemergence; for Johnsongrass plant response rating: 31 g ai/ha, scale 0 to 100 (0 no effect, 100 complete control); for Plant response rating, Johnsongrass: scale 0 to 100, 0 no effect, 100 complete control
Procedure, shortened: as §1

[14] = test system: waterhemp (common waterhemp, Amaranthus rudis); settings: Postemergence
Procedure, shortened: as §1

[15] = test system: giant foxtail (Setaria faberii); settings: Postemergence; for Foxtail, Giant plant response rating: scale 0 to 100 (0 no effect, 100 complete control); for Plant response rating, Foxtail, Giant: scale 0 to 100, 0 no effect, 100 complete control
Procedure, shortened: as §1

[16] = test system: oilseed rape (Brassica napus); settings: Postemergence
Procedure, shortened: as §1

soybean (Glycine max) = settings: Postemergence
Procedure, shortened: as §1

[17] = 31 g ai/ha, scale 0 to 100 (0 no effect, 100 complete control)
[18] = 62 g ai/ha, scale 0 to 100, 0 no effect, 100 complete control
[19] = 125 g ai/ha, scale 0 to 100, 0 no effect, 100 complete control

Structure (SMILES): FC(F)(F)c1cc(-c2c(Br)cccc2Oc2ncc(Cl)cn2)no1 [Compound 170]
- Pigweed plant response rating [1, 17]: 90
- Plant response rating, Pigweed [1, 18]: 98
- Plant response rating, Pigweed [1, 19]: 98
- Galium plant response rating [2]: 50
- Plant response rating, Galium ([2]; 62 g ai/ha): 65
- Plant response rating, Galium ([2]; 125 g ai/ha): 80
- Morningglory plant response rating [3, 17]: 30
- Plant response rating, Morningglory [3, 18]: 70
- Plant response rating, Morningglory [3, 19]: 98
- Corn plant response rating (corn (Zea mays); 16 g ai/ha): 5
- Corn plant response rating (corn (Zea mays); 31 g ai/ha): 5
- Plant response rating, Corn (corn (Zea mays); 62 g ai/ha): 5
- Plant response rating, Corn (corn (Zea mays); 125 g ai/ha): 5
- Lambsquarters plant response rating [4, 17]: 40
- Plant response rating, Lambsquarters [4, 18]: 40
- Plant response rating, Lambsquarters [4, 19]: 80
- Barnyardgrass plant response rating ([5]; 16 g ai/ha): 0
- Barnyardgrass plant response rating ([5]; 31 g ai/ha): 0
- Plant response rating, Barnyardgrass ([5]; 62 g ai/ha): 5
- Plant response rating, Barnyardgrass ([5]; 125 g ai/ha): 5
- Nutsedge, Yellow plant response rating [6, 17]: 5
- Plant response rating, Nutsedge, Yellow [6, 18]: 5
- Plant response rating, Nutsedge, Yellow [6, 19]: 10
- Blackgrass plant response rating ([7]; 16 g ai/ha): 0
- Blackgrass plant response rating ([7]; 31 g ai/ha): 0
- Plant response rating, Blackgrass ([7]; 62 g ai/ha): 5
- Plant response rating, Blackgrass ([7]; 125 g ai/ha): 5
- Ryegrass, Italian plant response rating [8, 17]: 0
- Plant response rating, Ryegrass, Italian [8, 18]: 5
- Plant response rating, Ryegrass, Italian [8, 19]: 5
- Ragweed plant response rating [9, 17]: 5
- Plant response rating, Ragweed [9, 18]: 10
- Plant response rating, Ragweed [9, 19]: 10
- Wheat plant response rating [10, 17]: 20
- Plant response rating, Wheat [10, 18]: 10
- Plant response rating, Wheat [10, 19]: 15
- Velvetleaf plant response rating [11, 17]: 5
- Plant response rating, Velvetleaf [11, 18]: 25
- Plant response rating, Velvetleaf [11, 19]: 25
- Crabgrass, Large plant response rating ([12]; 16 g ai/ha): 5
- Crabgrass, Large plant response rating ([12]; 31 g ai/ha): 5
- Plant response rating, Crabgrass, Large ([12]; 62 g ai/ha): 5
- Plant response rating, Crabgrass, Large ([12]; 125 g ai/ha): 10
- Johnsongrass plant response rating [13]: 0
- Plant response rating, Johnsongrass ([13]; 62 g ai/ha): 0
- Plant response rating, Johnsongrass ([13]; 125 g ai/ha): 5
- Waterhemp plant response rating [14, 17]: 80
- Plant response rating, Waterhemp [14, 18]: 100
- Plant response rating, Waterhemp [14, 19]: 85
- Foxtail, Giant plant response rating ([15]; 16 g ai/ha): 5
- Foxtail, Giant plant response rating ([15]; 31 g ai/ha): 30
- Plant response rating, Foxtail, Giant ([15]; 62 g ai/ha): 40
- Plant response rating, Foxtail, Giant ([15]; 125 g ai/ha): 40
- Oilseed Rape plant response rating [16, 17]: 5
- Plant response rating, Oilseed Rape [16, 18]: 40
- Plant response rating, Oilseed Rape [16, 19]: 25
- Soybean plant response rating (soybean (Glycine max); [17]): 10
- Plant response rating, Soybean (soybean (Glycine max); [18]): 10
- Plant response rating, Soybean (soybean (Glycine max); [19]): 35

Structure (SMILES): CC(F)(F)c1cc(-c2ccccc2Oc2ncc(Cl)cn2)on1 [Compound 178]
- Plant response rating (scale 0 to 100), Pigweed ([1]; 16 g ai/ha): 80
- Pigweed plant response rating [1, 17]: 85
- Pigweed plant response rating [1, 18]: 85
- Plant response rating, Pigweed [1, 19]: 90
- Plant response rating (scale 0 to 100), Galium ([2]; 16 g ai/ha): 75
- Galium plant response rating [2]: 80
- Plant response rating, Galium ([2]; 62 g ai/ha): 98
- Plant response rating, Galium ([2]; 125 g ai/ha): 85
- Plant response rating (scale 0 to 100), Morningglory ([3]; 16 g ai/ha): 70
- Morningglory plant response rating [3, 17]: 100
- Morningglory plant response rating [3, 18]: 100
- Plant response rating, Morningglory [3, 19]: 90
- Plant response rating (scale 0 to 100), Corn (corn (Zea mays); 16 g ai/ha): 0
- Corn plant response rating (corn (Zea mays); 31 g ai/ha): 5
- Plant response rating, Corn (corn (Zea mays); 62 g ai/ha): 5
- Plant response rating, Corn (corn (Zea mays); 125 g ai/ha): 10
- Plant response rating (scale 0 to 100), Lambsquarters ([4]; 16 g ai/ha): 25
- Lambsquarters plant response rating [4, 17]: 70
- Lambsquarters plant response rating [4, 18]: 75
- Plant response rating, Lambsquarters [4, 19]: 90
- Plant response rating (scale 0 to 100), Barnyardgrass ([5]; 16 g ai/ha): 10
- Barnyardgrass plant response rating ([5]; 31 g ai/ha): 15
- Plant response rating, Barnyardgrass ([5]; 62 g ai/ha): 10
- Plant response rating, Barnyardgrass ([5]; 125 g ai/ha): 20
- Plant response rating (scale 0 to 100), Nutsedge, Yellow ([6]; 16 g ai/ha): 5
- Nutsedge, Yellow plant response rating [6, 17]: 5
- Nutsedge, Yellow plant response rating [6, 18]: 10
- Plant response rating, Nutsedge, Yellow [6, 19]: 5
- Plant response rating (scale 0 to 100), Blackgrass ([7]; 16 g ai/ha): 0
- Blackgrass plant response rating ([7]; 31 g ai/ha): 5
- Plant response rating, Blackgrass ([7]; 62 g ai/ha): 10
- Plant response rating, Blackgrass ([7]; 125 g ai/ha): 15
- Plant response rating (scale 0 to 100), Ryegrass, Italian ([8]; 16 g ai/ha): 0
- Ryegrass, Italian plant response rating [8, 17]: 0
- Ryegrass, Italian plant response rating [8, 18]: 5
- Plant response rating, Ryegrass, Italian [8, 19]: 5
- Plant response rating (scale 0 to 100), Ragweed ([9]; 16 g ai/ha): 5
- Ragweed plant response rating [9, 17]: 5
- Ragweed plant response rating [9, 18]: 20
- Plant response rating, Ragweed [9, 19]: 35
- Plant response rating (scale 0 to 100), Wheat ([10]; 16 g ai/ha): 0
- Wheat plant response rating [10, 17]: 5
- Wheat plant response rating [10, 18]: 5
- Plant response rating, Wheat [10, 19]: 10
- Plant response rating (scale 0 to 100), Velvetleaf ([11]; 16 g ai/ha): 60
- Velvetleaf plant response rating [11, 17]: 40
- Velvetleaf plant response rating [11, 18]: 60
- Plant response rating, Velvetleaf [11, 19]: 75
- Plant response rating (scale 0 to 100), Crabgrass, Large ([12]; 16 g ai/ha): 5
- Crabgrass, Large plant response rating ([12]; 31 g ai/ha): 10
- Plant response rating, Crabgrass, Large ([12]; 62 g ai/ha): 20
- Plant response rating, Crabgrass, Large ([12]; 125 g ai/ha): 15
- Plant response rating (scale 0 to 100), Johnsongrass ([13]; 16 g ai/ha): 10
- Johnsongrass plant response rating [13]: 10
- Plant response rating, Johnsongrass ([13]; 62 g ai/ha): 15
- Plant response rating, Johnsongrass ([13]; 125 g ai/ha): 10
- Plant response rating (scale 0 to 100), Waterhemp ([14]; 16 g ai/ha): 70
- Waterhemp plant response rating [14, 17]: 80
- Waterhemp plant response rating [14, 18]: 85
- Plant response rating, Waterhemp [14, 19]: 90
- Plant response rating (scale 0 to 100), Foxtail, Giant ([15]; 16 g ai/ha): 0
- Foxtail, Giant plant response rating ([15]; 31 g ai/ha): 5
- Plant response rating, Foxtail, Giant ([15]; 62 g ai/ha): 5
- Plant response rating, Foxtail, Giant ([15]; 125 g ai/ha): 25
- Plant response rating (scale 0 to 100), Oilseed Rape ([16]; 16 g ai/ha): 35
- Oilseed Rape plant response rating [16, 17]: 80
- Oilseed Rape plant response rating [16, 18]: 80
- Plant response rating, Oilseed Rape [16, 19]: 95
- Plant response rating (scale 0 to 100), Soybean (soybean (Glycine max); 16 g ai/ha): 15
- Soybean plant response rating (soybean (Glycine max); [17]): 35
- Soybean plant response rating (soybean (Glycine max); [18]): 35
- Plant response rating, Soybean (soybean (Glycine max); [19]): 45
